One assay addresses PI3Kα (Homo sapiens, UniProt P42336). As to the kind of experiment: Z'-LYTE / Adapta biochemical kinase assay, PI3Kα. Particulars: for inhibition at 0.1 µM: concentration of 100 nM/liter, read-out: Percent Inhibition of target enzymes, PI3K A. An excerpt: The Z′-LYTE® biochemical assay employs a fluorescence-based, coupled-enzyme format and is based on the differential sensitivity of phosphorylated and non-phosphorylated peptides to proteolytic cleavage. The peptide substrate is labeled with two fluorophores—one at each end—that make up a FRET pair. In the primary reaction, the kinase transfers the gamma-phosphate of ATP to a single tyrosine, serine or threonine residue in a synthetic FRET-peptide. In the secondary reaction, a site-specific protease recognizes and cleaves non-phosphorylated FRET-peptides. Phosphorylation of FRET-peptides suppresses cleavage by the Development Reagent. Cleavage disrupts FRET between the donor (i.e., coumarin) and acceptor (i.e., fluorescein) fluorophores on the FRET-peptide, whereas uncleaved, phosphorylated FRET-peptides maintain FRET. A ratiometric method, which calculates the ratio (the Emission Ratio) of donor emission to acceptor emission after excitation of the donor fluorophore at 400 nm, is used to quantitate reaction progress.
A significant benefit of this ratiometric method for quantitating reaction progress is the elimination of well-to-well variations in FRET-peptide concentration and signal intensities. As a result, the assay yields very high Z′-factor values (>0.7) at a low percent phosphorylation.
Both cleaved and uncleaved FRET-peptides contribute to the fluorescence signals and therefore to the Emission Ratio. The extent of phosphorylation of the FRET-peptide can be calculated from the Emission Ratio. The Emission Ratio will remain low if the FRET-peptide is phosphorylated (i.e., no kinase inhibition) and will be high if the FRET-peptide is non-phosphorylated (i.e., kinase inhibition).
Enzyme: The ADAPTA universal kinase assay is a homogenous, fluorescent based immunoassay for the detection of ADP. In contrast to ATP depletion assays, the ADAPTA assay is extremely sensitive to ADP formation such that a majority of the signal change occurs in the first 10-20% conversion of ATP to ADP. This makes the ADAPTA universal kinase assay ideally suited for use with low activity kinases.
The principle of the ADAPTA universal kinase assay is outlined below. The assay itself can be divided into two phases: a kinase reaction phase, and an ADP detection phase. In the kinase reaction phase, all components required for the kinase reaction are added to the well, and the reaction is allowed to incubate for 60 minutes. After the reaction, a detection solution consisting of a europium labeled anti-ADP antibody, an Alexa Fluor® 647 labeled ADP tracer, and EDTA (to stop the kinase reaction) is added to the assay well. ADP formed by the kinase reaction (in the absence of an inhibitor) will displace the Alexa Fluor® 647 labeled ADP tracer from the antibody, resulting in a decrease in the TR-FRET signal. In the presence of an inhibitor, the amount of ADP formed by the kinase reaction is reduced, and the resulting intact antibody-tracer interaction results in a high TR-FRET signal.
Test Compounds: The Test Compounds are screened in 1% DMSO (final) in the well. For 10 point titrations, 3-fold serial dilutions are conducted from the starting concentration of the customer’s choosing.
Peptide/Kinase Mixtures: All Peptide/Kinase Mixtures are diluted to a 2X working concentration in the appropriate Kinase Buffer.
ATP Solution: All ATP Solutions are diluted to a 4X working concentration in Kinase Buffer (50 mM HEPES pH 7.5, 0.01% BRIJ-35, 10 mM MgCl2,1 mM EGTA). ATP Km apparent is previously determined using a Z′-LYTE® assay.
Development Reagent Solution: The Development Reagent is diluted in Development Buffer.
Assay Protocol: Bar-coded Corning, low volume NBS, black 384-wellplate (Corning Cat. #4514) 1. 2.5 µL - 4X Test Compound or 100 nL 100X plus 2.4 µL kinase buffer. 2. 5 µL - 2X Peptide/Kinase Mixture. 3. 2.5 µL - 4X ATP Solution. 4. 30-second plate shake. 5. 60-minute Kinase Reaction incubation at room temperature. 6. 5 µL - Development Reagent Solution. 7. […]

In the next assay the test system is SNB-75. Put plainly: NCI COMPARE panel (SRB growth inhibition), SNB-75. The assay is classed as cell-based. To be noted: Homo sapiens; CNS Cancer, SNB-75, 48 h. On the procedure: (§1) The human tumor cell lines of the cancer screening panel are grown in RPMI 1640 medium containing 5% fetal bovine serum and 2 mM L-glutamine. For a typical screening experiment, cells are inoculated into 96 well microtiter plates in 100 µL at plating densities ranging from 5,000 to 40,000 cells/well depending on the doubling time of individual cell lines. After cell inoculation, the microtiter plates are incubated at 37° C., 5% CO2, 95% air and 100% relative humidity for 24 h prior to addition of experimental drugs.
(§2) After 24 h, two plates of each cell line are fixed in situ with TCA, to represent a measurement of the cell population for each cell line at the time of drug addition (Tz). Experimental drugs are solubilized in dimethyl sulfoxide at 400-fold the desired final maximum test concentration and stored frozen prior to use. […]
(§3) Following drug addition, the plates are incubated for an additional 48 h at 37° C., 5 % CO2, 95% air, and 100% relative humidity. […] Bound stain is subsequently solubilized with 10 mM trizma base, and the absorbance is read on an automated plate reader at a wavelength of 515 nm. […] Using the seven absorbance measurements [time zero, (Tz), control growth, (C), and test growth in the presence of drug at the five concentration levels (Ti)], the percentage growth is calculated at each of the drug concentrations levels. Percentage growth inhibition is calculated as: […]

The test system of the next assay is SR. As to the kind of experiment: NCI COMPARE panel (SRB growth inhibition), SR. Type of assay: cell-based. To be noted: Homo sapiens, Leukemia, 48 h. On the procedure:
as §1, §2, §3

The next assay relates to HOP-62. Put plainly: NCI COMPARE panel (SRB growth inhibition), HOP-62. The assay is classed as cell-based. To be noted: Homo sapiens; Non-Small Cell Lung Cancer, HOP-62, 48 h. On the procedure:
as §1, §2, §3

PI3Kα, sequence (P42336 whole entry): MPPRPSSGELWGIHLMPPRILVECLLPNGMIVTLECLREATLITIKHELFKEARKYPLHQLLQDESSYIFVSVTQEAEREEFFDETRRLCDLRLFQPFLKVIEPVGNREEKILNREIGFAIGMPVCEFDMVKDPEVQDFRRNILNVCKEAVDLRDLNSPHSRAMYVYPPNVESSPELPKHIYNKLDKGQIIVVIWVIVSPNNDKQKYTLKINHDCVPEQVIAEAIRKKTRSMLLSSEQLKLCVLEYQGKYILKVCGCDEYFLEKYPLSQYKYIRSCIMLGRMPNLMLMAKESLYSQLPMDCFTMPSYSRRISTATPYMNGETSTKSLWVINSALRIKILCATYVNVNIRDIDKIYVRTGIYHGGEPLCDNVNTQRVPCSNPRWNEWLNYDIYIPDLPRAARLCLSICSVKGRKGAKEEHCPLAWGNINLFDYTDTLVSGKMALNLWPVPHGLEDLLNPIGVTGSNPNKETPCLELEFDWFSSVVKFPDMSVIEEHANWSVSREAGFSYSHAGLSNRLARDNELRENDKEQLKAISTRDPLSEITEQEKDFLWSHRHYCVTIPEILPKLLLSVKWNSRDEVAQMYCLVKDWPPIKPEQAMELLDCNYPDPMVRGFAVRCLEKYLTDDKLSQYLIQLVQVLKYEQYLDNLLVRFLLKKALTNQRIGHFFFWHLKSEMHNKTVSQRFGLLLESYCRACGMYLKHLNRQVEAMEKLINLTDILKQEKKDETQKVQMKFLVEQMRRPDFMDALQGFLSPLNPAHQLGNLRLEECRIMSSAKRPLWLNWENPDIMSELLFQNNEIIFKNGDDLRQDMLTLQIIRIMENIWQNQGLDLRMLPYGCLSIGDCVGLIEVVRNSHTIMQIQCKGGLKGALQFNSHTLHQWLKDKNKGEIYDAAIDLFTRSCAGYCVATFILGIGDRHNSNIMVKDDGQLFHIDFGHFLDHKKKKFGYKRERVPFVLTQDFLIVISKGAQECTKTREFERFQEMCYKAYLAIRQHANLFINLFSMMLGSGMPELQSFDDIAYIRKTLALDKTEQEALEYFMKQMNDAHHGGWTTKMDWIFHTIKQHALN
PI3Kα, sequence (P27986 whole entry partner): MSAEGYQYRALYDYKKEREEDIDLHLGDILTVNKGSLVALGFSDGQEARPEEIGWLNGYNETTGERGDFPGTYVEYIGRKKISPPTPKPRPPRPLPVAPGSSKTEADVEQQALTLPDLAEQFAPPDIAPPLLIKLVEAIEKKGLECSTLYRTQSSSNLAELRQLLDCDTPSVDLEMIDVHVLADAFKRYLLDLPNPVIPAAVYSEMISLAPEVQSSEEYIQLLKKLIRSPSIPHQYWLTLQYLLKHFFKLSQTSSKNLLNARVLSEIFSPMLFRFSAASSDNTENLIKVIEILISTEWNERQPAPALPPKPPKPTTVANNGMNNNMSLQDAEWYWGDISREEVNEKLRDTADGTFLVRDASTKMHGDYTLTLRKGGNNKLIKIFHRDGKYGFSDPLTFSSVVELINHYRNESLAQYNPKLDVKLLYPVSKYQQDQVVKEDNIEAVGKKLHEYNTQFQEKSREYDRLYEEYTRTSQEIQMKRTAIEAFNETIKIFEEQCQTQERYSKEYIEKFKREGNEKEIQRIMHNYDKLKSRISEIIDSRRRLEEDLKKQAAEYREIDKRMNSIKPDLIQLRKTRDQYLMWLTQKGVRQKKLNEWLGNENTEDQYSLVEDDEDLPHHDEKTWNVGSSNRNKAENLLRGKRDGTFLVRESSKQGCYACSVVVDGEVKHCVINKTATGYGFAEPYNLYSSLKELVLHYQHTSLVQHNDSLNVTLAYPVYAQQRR

For orientation: inhibition means the drop in the measured response relative to a control, in per cent. A word on the GI50: it is the concentration giving 50% growth inhibition. High values mean lower sensitivity of the cells, low ones greater sensitivity of the cells. For `CS(=O)(=O)Nc1cc(-c2ccc3ncc(C#N)c(Nc4cccc(Cl)c4F)c3c2)cnc1Cl` [Compound 10, N-[2-chloro-5-[4-(3-chloro-2-fluoro-anilino)-3-cyano-6-quinolyl]-3-pyridyl]methanesulfonamide], at PI3Kα, the inhibition at 0.1 µM is more than 90%. The GI50 with SNB-75 was not above 75 nM; with SR, not above 75 nM; with HOP-62, 125 to 250 nM.

One may read the IC50 as the concentration at which inhibition is half-maximal. With `CS(=O)(=O)Nc1cc(-c2ccc3ncnc(Nc4cccc(Cl)c4F)c3c2)cnc1Cl` [Compound 6, N-[2-chloro-5-[4-(3-chloro-2-fluoro-anilino)quinazolin-6-yl]-3-pyridyl] methanesulfonamide], the IC50 on PI3Kα (PI3Kα) is not above 2 nM. For the same compound, the inhibition at 0.1 µM on PI3Kα is more than 90%. Also, the figures for the GI50 with SNB-75, in the assay on SR and in the assay with HOP-62 were not above 75 nM, more than 250 nM and 75 to 125 nM, respectively.

For the origin of these results see patent US20230133958A1, “COMPOUNDS USEFUL IN MODULATING EGFR AND PI3K” (Mekanistic Therapeutics LLC, priority 2021, published 2023).
